Holding throughout (type): cell-based
The target of assay [1] is T1, EGFR L858R/C797S (BaF3 LC cells) (Homo sapiens, UniProt P00533, C797S/L858R).
T1 construct: expressed in transfected cells; host or cells: BaF3
In words: EGFR degradation HTRF assay, BaF3 LC cells. Conditions: BaF3 LC, 16h treatment; read-out: BaF3 LC DC50. On the technique in general: Time-resolved FRET reads energy transfer from a long-lived donor to a nearby acceptor.

In assay [2] the test system is EGFR Del19/C797S (H1975-clone #23). In words: EGFR degradation HTRF assay, H1975-clone #23 DC cells. Conditions: 16h treatment; for H1975 #23 DC Dmax (%): maximum percentage of degradation; for DC50: H1975 #23 DC, read-out: H1975 #23 DC DC50. In a few lines: (§1)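 Cells were dosed on day 2 with an 8-point, 5-fold dilution series starting at 10 uM final and incubated 16h at 37° C. After lysis for 1 hour, HTRF antibodies were added overnight at room temperature and the plate was read at 665/620 nm. Degradation was normalised to DMSO wells and fitted for DC50 and Dmax.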

Assay [3] concerns EGFR Del19/T790M/C797S (H1975-clone #28). The experiment in a line: EGFR degradation HTRF assay, H1975-clone #28 DTC cells. Conditions: H1975 # 28 DTC cells; for DC50: EGFR degradation, IC50 (DC50) from curve fit, read-out: DC50(nM) H1975 # 28 DTC; for Dmax (%) H1975 # 28 DTC: maximum percentage of inhibition (degradation). Summed up: as §1
In assay [4] the target is T2, EGFR L858R/T790M/C797S (BaF3-LTC cells) (Homo sapiens, UniProt P00533, C797S/L858R/T790M).
T2 construct: expressed in transfected cells; host or cells: BaF3
The experiment in a line: EGFR degradation HTRF assay, BaF3-LTC cells. Conditions: BaF3-LTC cells; EGFR degradation, IC50 (DC50) from curve fit; read-out: DC50(nM) BaF3-LTC. In a few lines:
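Cells treated 16 h at 37 °C, 5% CO2 in medium with 0.2% DMSO; top final concentration 10 uM, 5-fold dilution, 8 doses. Lysates read by HTRF (665/620 nm); degradation % versus DMSO high control, DC50 from four-parameter fit, Dmax as maximal degradation.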

Five compounds from US20230265116A1, “DEGRADATION OF (EGFR) BY CONJUGATION OF EGFR INHIBITORS WITH E3 LIGASE LIGAND AND METHODS OF USE” (BEIGENE, LTD., priority 2020, published 2023) can be followed below.

T2 sequence (P00533 25-1210 T790M/C797S/L858R): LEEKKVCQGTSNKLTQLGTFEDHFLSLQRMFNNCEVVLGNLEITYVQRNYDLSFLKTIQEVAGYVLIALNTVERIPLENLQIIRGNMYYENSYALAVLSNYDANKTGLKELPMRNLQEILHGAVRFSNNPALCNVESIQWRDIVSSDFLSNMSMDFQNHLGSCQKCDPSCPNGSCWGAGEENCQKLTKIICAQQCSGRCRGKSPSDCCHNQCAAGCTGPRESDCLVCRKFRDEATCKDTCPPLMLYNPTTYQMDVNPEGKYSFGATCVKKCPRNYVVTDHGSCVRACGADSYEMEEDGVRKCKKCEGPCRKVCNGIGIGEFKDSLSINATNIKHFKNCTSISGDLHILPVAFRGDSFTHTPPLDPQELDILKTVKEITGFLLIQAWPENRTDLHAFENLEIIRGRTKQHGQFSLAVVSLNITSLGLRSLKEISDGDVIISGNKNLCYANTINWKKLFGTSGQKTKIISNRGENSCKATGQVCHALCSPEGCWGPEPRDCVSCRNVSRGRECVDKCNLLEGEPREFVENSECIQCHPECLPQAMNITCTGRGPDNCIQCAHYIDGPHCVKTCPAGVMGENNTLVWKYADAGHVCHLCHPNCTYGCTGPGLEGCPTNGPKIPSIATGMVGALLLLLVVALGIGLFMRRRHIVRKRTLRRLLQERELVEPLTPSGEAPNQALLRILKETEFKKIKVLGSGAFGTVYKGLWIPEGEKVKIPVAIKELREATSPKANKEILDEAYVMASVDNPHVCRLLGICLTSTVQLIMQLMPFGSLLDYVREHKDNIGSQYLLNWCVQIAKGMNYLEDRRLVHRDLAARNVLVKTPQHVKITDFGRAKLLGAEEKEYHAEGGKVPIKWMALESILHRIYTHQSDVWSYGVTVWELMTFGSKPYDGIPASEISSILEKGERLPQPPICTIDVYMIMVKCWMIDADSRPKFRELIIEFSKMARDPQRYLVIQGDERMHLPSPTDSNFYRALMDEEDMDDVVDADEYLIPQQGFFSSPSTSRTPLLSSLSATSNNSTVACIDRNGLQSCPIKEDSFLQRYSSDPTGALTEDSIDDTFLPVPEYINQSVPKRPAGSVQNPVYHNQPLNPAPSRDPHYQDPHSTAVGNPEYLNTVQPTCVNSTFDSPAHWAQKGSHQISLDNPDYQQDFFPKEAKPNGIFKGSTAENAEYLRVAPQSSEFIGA
T1 sequence (P00533 25-1210 C797S/L858R): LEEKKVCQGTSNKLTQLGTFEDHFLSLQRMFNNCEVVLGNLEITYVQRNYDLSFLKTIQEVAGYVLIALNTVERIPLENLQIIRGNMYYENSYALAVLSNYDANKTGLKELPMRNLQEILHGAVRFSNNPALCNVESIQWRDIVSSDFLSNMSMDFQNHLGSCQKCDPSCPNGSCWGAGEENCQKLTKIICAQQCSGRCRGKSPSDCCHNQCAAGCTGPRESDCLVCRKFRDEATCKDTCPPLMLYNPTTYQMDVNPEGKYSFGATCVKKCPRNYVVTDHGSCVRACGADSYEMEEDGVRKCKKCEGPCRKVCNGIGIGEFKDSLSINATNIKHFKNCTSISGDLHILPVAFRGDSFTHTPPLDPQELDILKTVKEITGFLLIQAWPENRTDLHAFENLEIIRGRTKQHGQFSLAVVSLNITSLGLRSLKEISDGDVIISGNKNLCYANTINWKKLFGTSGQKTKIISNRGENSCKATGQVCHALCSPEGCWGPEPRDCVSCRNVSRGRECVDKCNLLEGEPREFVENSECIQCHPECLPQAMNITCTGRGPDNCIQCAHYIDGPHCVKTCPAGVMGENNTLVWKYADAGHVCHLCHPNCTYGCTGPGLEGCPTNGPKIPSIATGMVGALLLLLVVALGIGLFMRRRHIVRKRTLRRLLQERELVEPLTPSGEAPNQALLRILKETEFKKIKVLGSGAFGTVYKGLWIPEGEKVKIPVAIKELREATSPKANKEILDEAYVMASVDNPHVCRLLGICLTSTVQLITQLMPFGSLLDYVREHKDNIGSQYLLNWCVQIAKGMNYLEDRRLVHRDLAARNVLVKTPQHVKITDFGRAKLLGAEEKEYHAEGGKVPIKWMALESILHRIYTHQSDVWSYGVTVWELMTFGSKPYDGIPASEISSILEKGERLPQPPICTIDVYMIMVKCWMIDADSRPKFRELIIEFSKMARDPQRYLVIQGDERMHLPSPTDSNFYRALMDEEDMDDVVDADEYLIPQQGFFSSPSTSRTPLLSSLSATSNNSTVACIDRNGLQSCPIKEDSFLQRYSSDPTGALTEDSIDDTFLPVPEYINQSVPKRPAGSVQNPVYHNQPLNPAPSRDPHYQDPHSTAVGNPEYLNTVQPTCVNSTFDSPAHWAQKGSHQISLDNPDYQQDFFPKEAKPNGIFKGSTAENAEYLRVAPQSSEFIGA

On to `CCOc1cc(N2CCC(N3CCN(CCc4cc(F)c([C@H]5CCC(=O)NC5=O)c(F)c4)CC3)CC2)c(CC)cc1Nc1ncc(Br)c(Nc2ccc3nc(CC)ccc3c2P(C)(C)=O)n1` [Example 483, (R)-3-(4-(2-(4-(1-(4-((5-bromo-4-((5-(dimethylphosphoryl)-2-ethylquinolin-6-yl)amino)pyrimidin-2-yl)amino)-5-ethoxy-2-ethylphenyl)piperidin-4-yl)piperazin-1-yl)ethyl)-2,6-difluorophenyl)piperidine-2,6-dione], for which the 50% degradation concentration (DC50) in assay [1] worked out at 69 nM; in assay [2], 7.19 nM; in assay [3], 2.02 nM; in assay [4], 26.6 nM. In assay [2], the “H1975 #23 DC Dmax (%)” value was found to be 70.71%. For the same compound, the “Dmax (%) H1975 # 28 DTC” value in assay [3] was 81.31%.

Consider `CCc1ccc2c(P(C)(C)=O)c(Nc3nc(Nc4cc(CC)c(N5CCC(N6CCN(CCc7cc(F)c(C8CCC(=O)NC8=O)c(F)c7)CC6)CC5)cc4OC)ncc3Br)ccc2n1` (stereo not drawn) [Example 485, 3-(4-(2-(4-(1-(4-((5-bromo-4-((5-(dimethylphosphoryl)-2-ethylquinolin-6-yl)amino)pyrimidin-2-yl)amino)-2-ethyl-5-methoxyphenyl)piperidin-4-yl)piperazin-1-yl)ethyl)-2,6-difluorophenyl)piperidine-2,6-dione], for which the DC50 amounted to 35.1 nM in assay [1], 10.4 nM in assay [2], 2.78 nM in assay [3] and 26.9 nM in assay [4]. Also, the “H1975 #23 DC Dmax (%)” value in assay [2] was 82.7%. Besides, the “Dmax (%) H1975 # 28 DTC” value in assay [3] is 70.65%.

With `CCOc1cc(N2CCC(N3CCN(CCc4cc(F)c([C@H]5CCC(=O)NC5=O)c(F)c4)CC3)CC2)c(CC)cc1Nc1ncc(Br)c(Nc2cc(F)c3nc(CC)ccc3c2P(C)(C)=O)n1` [Example 486, (R)-3-(4-(2-(4-(1-(4-((5-bromo-4-((5-(dimethylphosphoryl)-2-ethyl-8-fluoroquinolin-6-yl)amino)pyrimidin-2-yl)amino)-5-ethoxy-2-ethylphenyl)piperidin-4-yl)piperazin-1-yl)ethyl)-2,6-difluorophenyl)piperidine-2,6-dione], the DC50 in assay [1] is 16.6 nM; in assay [2], 4.73 nM; in assay [3], 0.802 nM; in assay [4], 5.83 nM. In addition, in assay [2], the “H1975 #23 DC Dmax (%)” value worked out at 80.02%. Moreover, the “Dmax (%) H1975 # 28 DTC” value in assay [3] came out at 85.73%.

Take `CCc1cc(Nc2ncc(Br)c(Nc3ccc4nc(C)ccc4c3P(C)(C)=O)n2)c(OC)cc1N1CCC(N2CCN(C(=O)[C@H]3CN(c4cc(F)c([C@H]5CCC(=O)NC5=O)c(F)c4)CC3(C)C)CC2)CC1` [Example 487, (R)-3-(4-((R)-4-(4-(1-(4-((5-bromo-4-((5-(dimethylphosphoryl)-2-methylquinolin-6-yl)amino)pyrimidin-2-yl)amino)-2-ethyl-5-methoxyphenyl)piperidin-4-yl)piperazine-1-carbonyl)-3,3-dimethylpyrrolidin-1-yl)-2,6-difluorophenyl)piperidine-2,6-dione]: the half-maximal degradation concentration (DC50) in assay [1] amounted to 10.1 nM; in assay [2] it was 4.02 nM; in assay [3] it was 2.22 nM; in assay [4], 5.25 nM. In addition, in assay [2], the “H1975 #23 DC Dmax (%)” value was determined as 74.41%. Moreover, the “Dmax (%) H1975 # 28 DTC” value in assay [3] came to 85.45%.

On to `CCc1cc(Nc2ncc(Br)c(Nc3ccc4nc(C)c(F)cc4c3P(C)(C)=O)n2)c(OC)cc1N1CCC(N2CCN(C(=O)[C@@H]3CCN(c4cc(F)c([C@H]5CCC(=O)NC5=O)c(F)c4)C3)CC2)CC1` [Example 488, (R)-3-(4-((R)-3-(4-(1-(4-((5-bromo-4-((5-(dimethylphosphoryl)-3-fluoro-2-methylquinolin-6-yl)amino)pyrimidin-2-yl)amino)-2-ethyl-5-methoxyphenyl)piperidin-4-yl)piperazine-1-carbonyl)pyrrolidin-1-yl)-2,6-difluorophenyl)piperidine-2,6-dione], for which the DC50 in assay [1] turned out to be 17.9 nM; in assay [2], 2.23 nM; in assay [3] it was 0.97 nM; in assay [4], 3.52 nM. The “H1975 #23 DC Dmax (%)” value in assay [2] came out at 67.73%. Besides, the “Dmax (%) H1975 # 28 DTC” value in assay [3] turned out to be 84.91%.

For orientation: DC50 means the concentration at which degradation of the target reaches its halfway point.
